According to PubChem BioAssay AID743417 (Broad Institute, 2014):
Records with an inconclusive call do not appear. The source made the active and inactive calls.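 How the source made its calls: active means compounds lowering the luciferase signal with a fitted half-maximal dose at most twice their top valid dose (cut at about 30 µM in these data); inconclusive means flat fits with moderate signal loss, or poor fits; inactive means the rest.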

System: Clone20 osteoblast Shn3 3'UTR firefly luciferase, 24 h
Assay: Shn3 3'UTR reporter inhibitors, dose response, cell-based, Clone20 osteoblasts, luminescence, dry powder, set 2 (AID 743417)

Compound | AC50
CCCCN1CC(COCc2ccccc2)Oc2cccc(Oc3ccc(C(C)C)cc3)c2S1(=O)=O (configuration not stated) | 5.03 µM
O=C(Nc1ccc(-c2nc3ccccc3o2)cc1)c1ccc(N2CCOCC2)c([N+](=O)[O-])c1 | 3.35 µM
COc1ccc(CNC(=O)c2cc3c(C)nc4ccccc4c3o2)c(OC)c1 | 3.22 µM
c1ccc2c(-c3[nH]ncc3CNCCCn3ncc4ccccc43)cccc2c1 | 3.25 µM
O=c1c(Br)c(Br)cnn1-c1ccccc1 | 1.82 µM
CCOc1ccc(C(=O)C(CCC(CN(C)C)C(=O)c2ccc(OCC)cc2)CN(C)C)cc1 (configuration not stated) | 1.61 µM
CCOC(=O)c1cnc(-n2nc(C)cc2C)nc1NCc1ccc2c(c1)OCO2 | 8.74 µM
Cc1ccc(S(=O)(=O)N2CCc3ccccc3CC2)cc1 | 3.29 µM
COC(=O)C[C@]1(C(=O)OC)CN(C#N)N(c2ccc(Cl)cc2)C12c1ccccc1-c1ccccc12 | 1.88 µM
O=S(=O)(c1ccccc1C(F)(F)F)N1CCN(c2ncnc3sccc23)CC1 | 3.44 µM
O=S(=O)(c1ccccc1)N1CCN(c2cc(-c3ccccc3)nc3ncnn23)CC1 | 1.12 µM
CCOc1ccccc1NC(=O)c1nc(S(=O)(=O)Cc2cccc(C)c2)ncc1Cl | 0.324 µM
CCCOc1ccc(C(=O)NNC(=S)NC(=O)CC)cc1 | 24.4 µM
O=C(CSc1n[nH]c(-c2ccccn2)n1)Nc1cccc(Cl)c1 | 2.9 µM
Cc1ccc(CNC(=O)c2cc3c(C)nc4ccccc4c3o2)cc1 | 2.49 µM
Cc1cc(C(=O)COC(=O)c2ccccc2O)c(C)n1Cc1cccs1 | 8.99 µM
CC(C)CC(NC(=O)c1ccc(Cl)cc1)C(=O)OCC(=O)c1ccc2c(c1)NC(=O)CO2 (configuration not stated) | 4.01 µM
CC(=O)Nc1ccc(OCC(=O)Nc2ccc(Cl)c(S(=O)(=O)N3CCOCC3)c2)cc1 | 1.59 µM
CC[C@H](C)[C@H]1O[C@]2(CC[C@@H]1C)C[C@@H]1C[C@@H](CC=C(C)[C@@H](O[C@H]3C[C@H](OC)[C@@H](O[C@H]4C[C@H](OC)[C@@H](O)[C@H](C)O4)[C@H](C)O3)[C@@H](C)C=CC=C3CO[C@@H]4[C@H](O)C(C)=C[C@@H](C(=O)O1)[C@]34O)O2 | 6.32 µM
COCCN1Cc2cccc(C(=O)Nc3ccc4c(c3)OCCO4)c2C1=O | 27.1 µM
O=C(c1ccc2c(=O)n(-c3ccccc3)c(=S)[nH]c2c1)N1CCCCC1 | 1.44 µM
CCCC(=O)OCCNc1cc(Sc2nccn2C)c2nonc2c1[N+](=O)[O-] | 7.22 µM
Oc1cccc2cc(Nc3ccccc3)cnc12 | 0.644 µM
C=CCSc1nc2ccccc2n1C(=O)/C=C/c1cc(OC)c(OC)c(OC)c1 | 1.13 µM
CCC(=O)NC(c1ccc(C)cc1)c1ccc2cccnc2c1O (configuration not stated) | 0.704 µM
Nc1nc(N)c2cc(Sc3cccc(C(F)(F)F)c3)ccc2n1 | 4.87 µM

Compound | AC50
CC(Sc1nc2ccccc2c(=O)n1C)C(=O)N(C)C1CCCCC1 (configuration not stated) | 2.27 µM
C[C@H]1CCC/C=C/[C@@H]2C[C@H](O)C[C@H]2[C@@H](O)/C=C/C(=O)O1 | 2.17 µM
O=C1S/C(=C\c2ccc(N3CCOCC3)o2)C(=O)N1Cc1c(F)cccc1Cl | 6.72 µM
CN1/C(=C\C=C2/SC(=S)NC2=O)C(C)(C)c2ccccc21 | 2.6 µM
Cn1nc(CC(=O)Nc2ccc3c(c2)OCCO3)c2ccccc2c1=O | 0.899 µM
O=C(Nc1nc(-c2ccccn2)cs1)c1cccc(S(=O)(=O)N2CCOCC2)c1 | 1.52 µM
CCOC(=O)c1c(CSCc2ccccc2)oc2ccc(O)c(CN(C)C)c12 | 9.79 µM
COc1ccc(OC)c2sc(N(CCN(C)C)C(=O)/C=C/c3cccs3)nc12 | 12.7 µM
Cn1nccc1C(=O)NC1CCCc2c1cnn2-c1ccccc1F (configuration not stated) | 0.37 µM
O=C1NC2C(=CC(O)C(O)C2O)c2cc3c(c(O)c21)OCO3 (configuration not stated) | < 0.26 µM
CCC(CC)CN1C(N(C)C)=NC[C@@H]1CC(C)C | 0.717 µM
CC(=O)OCCNc1cc(Sc2nc3ccccc3[nH]2)c2nonc2c1[N+](=O)[O-] | 1.86 µM
COc1ccc(NC(=O)c2nc(S(=O)(=O)Cc3cccc(C)c3)ncc2Cl)c(OC)c1 | 0.299 µM
CCCCCCCNC(=O)C1(CC2CC(c3cccc(Br)c3)=NO2)CCNCC1 (configuration not stated) | 11.7 µM
COc1ccc2c(c1OC)C(=O)N1c3ccccc3C(=O)N(c3ccccc3F)C21 (configuration not stated) | 11.6 µM
COc1ccc(CCNc2ncnc3sc(C)cc23)cc1OC | < 0.26 µM
O=C(Nc1ccc([N+](=O)[O-])cc1)Nc1nc(-c2ccc(Cl)s2)cs1 | 3.19 µM
COc1ccc(CNC(=O)C(c2ccc(C)cc2)N(Cc2cccs2)C(=O)c2ccc3c(c2)OCCO3)cc1 (configuration not stated) | 8.1 µM
c1csc(CCNc2ncnc3sc4c(c23)CCC4)c1 | 1.7 µM
Cc1cc(NC(=O)CCCS(=O)(=O)c2nc(-c3cccs3)cc(C(F)(F)F)n2)no1 | 1.73 µM
Cc1ccc(S(=O)(=O)N2CCC3(CC2)OCCN3S(=O)(=O)c2c(C)cc(C)cc2C)cc1 | 6.81 µM
CC1CCCC(NC(=O)c2cccc(S(=O)(=O)N3CCN(c4ccccc4)CC3)c2)C1C (configuration not stated) | 3.14 µM
Cc1ccc(-c2nnc(N3CCC(C)CC3)c3ccccc23)cc1C | 6.41 µM
O=C(c1ccc(S(=O)(=O)c2ccc(F)cc2)c([N+](=O)[O-])c1)N1CCCCCC1 | 2.38 µM
CC(=O)c1cccc(NS(=O)(=O)c2ccc(-c3cnc(C4CC4)o3)cc2)c1 | 5 µM
COc1ccc(NC(=O)COc2ccc(N(C)S(=O)(=O)c3ccc(Cl)cc3)cc2)cc1OC | 1.35 µM

Compound | AC50
C[C@H](NC(=O)c1nc[nH]c1C(=O)NCc1ccc(CNC(=O)OC(C)(C)C)cc1)c1ccccc1 | 11.7 µM
Cc1ccc(S(=O)(=O)CC2CSc3nc4ccccc4n32)cc1 (configuration not stated) | 0.347 µM
CCCOc1ccccc1N/C(=N/c1nc(C)cc(C)n1)NC(=O)COc1ccc(OC)cc1 | 3.24 µM
Clc1ccc(-c2cc(-c3nnc4n3CCCCC4)c3ccccc3n2)cc1 | 5.59 µM
CN1C(=O)c2cccc(NCCCCCCN3C(=O)c4ccccc4C3=O)c2C1=O | 5.57 µM
CC(C)c1ccc(/C=C(\c2nc3ccccc3[nH]2)S(=O)(=O)c2ccccc2)cc1 | 4.01 µM
C[C@H](O)C#Cc1ccc2c(c1)O[C@@H](CN(C)Cc1ccc(-c3ccccc3)cc1)[C@H](C)CN([C@@H](C)CO)S2(=O)=O | 10.3 µM
OC(CNCCC1C=Nc2ccccc21)Cn1c2ccc(Cl)cc2c2cc(Cl)ccc21 (configuration not stated) | 5.11 µM
CC(C)NC(=O)C1CCN(C(=O)c2cc3sccc3n2Cc2ccc(F)cc2)CC1 | 5.05 µM
O=S(=O)(/C(=C\c1ccc(C(F)(F)F)cc1)c1nc2ccccc2[nH]1)c1ccccc1 | 1.85 µM
C/C1=C\[C@@H](C)C/C=C/[C@H]2[C@@H]3O[C@]3(C)[C@@H](C)[C@H]3[C@H](Cc4c[nH]c5ccccc45)NC(=O)[C@]32C(=O)/C=C/C(=O)[C@@H]1O | 6.44 µM
CC(Oc1cccc(Br)c1)C(=O)NNC(=O)c1ccccn1 (configuration not stated) | 3.36 µM
C[C@H](NC(=O)c1ncn2c1c(=O)[nH]c1ccc(Br)cc12)c1ccccc1 | 8.76 µM
CC(NCc1ccc(OCc2ccc(Cl)cc2)cc1)C(O)c1ccccc1 (configuration not stated) | 10.9 µM
CCN(CCCl)c1cc(CN(C)C)cc(NC(=O)c2ccc(C(=O)Nc3cc(CN(C)C)cc(N(CC)CCCl)c3)cc2)c1 | 2.65 µM
COc1ccc(Cn2c(SCc3cc(C)ccc3C)nc3cc(OC)c(OC)cc3c2=N)cc1 | 7.91 µM
Cc1cc(/C=C2/SC(=S)N(c3cccc(Cl)c3)C2=O)c(C)n1-c1cccnc1 | 0.979 µM
COc1cccc(CNCCc2c[nH]c3ccccc23)c1OCc1ccccc1 | 4.09 µM
COc1ccc(NC(=O)C2Cc3c(-c4cccc(C(C)=O)c4)ccnc3O2)cc1OC (configuration not stated) | 0.799 µM
COc1ccc(CCNC(=O)CCC(=O)N2CCOc3ccc(Cl)cc32)cc1OC | > 70 µM (inactive)
COc1cc(NC(=O)c2cccc3c(-c4cccnc4)coc23)cc(OC)c1OC | 0.978 µM
C=CCSc1nc2ccccc2n1C(=O)/C=C/c1ccc(OC)c(OC)c1 | 1.31 µM
O=C(c1ccccc1)N1CCN(c2ncnc3sc4c(c23)CCC4)CC1 | 4.14 µM
COc1ccccc1-c1cc(C(F)(F)F)nc(S(=O)(=O)CCCC(=O)N2CCCCC2C)n1 (configuration not stated) | 2.65 µM
CCCC(=O)N1CCN(c2ccc(NC(=O)c3cc4ccccc4o3)cc2Cl)CC1 | 4.1 µM
CCN(CC)CCn1c(=N)n(CC(O)COc2cccc(C)c2)c2ccccc21 (configuration not stated) | 4.39 µM

Compound | AC50
Cn1c(COc2ccc(Br)cc2)nnc1SC1CCc2ccccc2C1=O (configuration not stated) | 35.2 µM
CCCn1c(NC(=O)c2ccc(Cl)c(S(=O)(=O)N3CCCC3)c2)nc2ccccc21 | 8.39 µM
O=C(CSc1c2c(nc3ccc(Cl)cc13)CCCC2)NCc1ccco1 | 5.71 µM
COc1cc(SC)ccc1C(=O)Nc1nc(C)cs1 | 7.09 µM
Oc1cc(-c2ccncc2)cc2cccnc12 | 5.4 µM
CN(Cc1ccc(Cl)c(Cl)c1)C(=O)c1cccc(S(=O)(=O)N2CCN(Cc3ccccc3)CC2)c1 | 3.47 µM
Cc1cccc(C(=O)Nc2ccc(C(=O)/C=C/c3cccnc3)cc2)c1 | 6.23 µM
C=CCC[C@H](Cc1ccc(F)cc1)C(=O)OC[C@H](Cc1c[nH]c2ccccc12)NC(=O)[C@@H](CC=C)CC(=O)N[C@H](CO)Cc1ccccc1 | 4.44 µM
C=CCOc1nc2c(c(=O)n(C)c(=O)n2C)n1Cc1ccc(Cl)cc1Cl | 2.15 µM
CCCC(=O)OCCNc1cc(Sc2nc3ccccc3[nH]2)c2nonc2c1[N+](=O)[O-] | 6.63 µM
CC1=CC2/C=C(\C)CCC(O)C(O)/C=C/C(=O)C23C(=O)NC(CC(C)C)C3C1C (configuration not stated) | 5.29 µM
CC(Sc1nc2ccccc2c(=O)n1C)C(=O)Nc1ccc2c(c1)OCCO2 (configuration not stated) | 1.94 µM
O=C1C(Br)=C(c2ccccc2)C(c2ccccc2)=C1c1ccccc1 | 0.46 µM
CCc1nc(N)nc(N)c1-c1ccc(N(C)Cc2ccccc2)c([N+](=O)[O-])c1 | < 0.26 µM
CC1CCN(c2ccc(-c3cccc(NC(=O)C(F)(F)F)c3)nn2)CC1 | 2.74 µM
COc1cc(/C=C/C(=O)c2ccc3c(c2)OCCO3)cc(Br)c1OCC(=O)N(C)C | 2.63 µM
COc1ccc(NC(=O)CCOc2cc(C)ccc2C)cc1S(=O)(=O)N1CCCCC1 | 10.4 µM
O=C(Nc1cc(F)ccc1F)N1CCN(c2ccnc3cc(Cl)ccc23)CC1 | 22.8 µM
O=C(Nc1nc(-c2ccccn2)cs1)c1cccc(-n2cnnn2)c1 | 2.58 µM
COc1ccc(S(=O)(=O)N2CCN(C(=O)c3cc(-c4ccc(Br)cc4)n[nH]3)CC2)cc1OC | 4.55 µM
CS(=O)(=O)c1ccc(C(=O)OCC(=O)NCc2cccs2)cc1[N+](=O)[O-] | 2.07 µM
CCS(=O)(=O)c1ncc(Cl)c(C(=O)Nc2ccccc2OC)n1 | 3.71 µM
CC(=O)NC(c1cccc([N+](=O)[O-])c1)c1ccc2cccnc2c1O (configuration not stated) | 0.889 µM
COc1ccc2c(c1)sc1nc(-c3ccccc3)cn12 | 7.37 µM
